Drawing on BindingDB's records for doi:10.1016/S0960-894X(01)80506-0 (n/a, 1994), this text covers IC50 for 14 compounds.

Assay [1] concerns the target Beta-lactamase (Pseudomonas aeruginosa (strain ATCC 15692 / DSM 22644 / CIP 104116 / JCM 14847 / LMG 12228 / 1C / PRS 101 / PAO1), UniProt P24735). Description: Concentration required for its inhibitory activity against Pseudomonas aeruginosa class C beta-lactamase.
The target in assay [2] is Beta-lactamase (Enterobacter cloacae, UniProt P05364). Description: Concentration required for its inhibitory activity against Enterobacter cloacae P99 class C beta-lactamase.
Chain of Beta-lactamase (Enterobacter cloacae, UniProt P05364) (P05364 whole entry): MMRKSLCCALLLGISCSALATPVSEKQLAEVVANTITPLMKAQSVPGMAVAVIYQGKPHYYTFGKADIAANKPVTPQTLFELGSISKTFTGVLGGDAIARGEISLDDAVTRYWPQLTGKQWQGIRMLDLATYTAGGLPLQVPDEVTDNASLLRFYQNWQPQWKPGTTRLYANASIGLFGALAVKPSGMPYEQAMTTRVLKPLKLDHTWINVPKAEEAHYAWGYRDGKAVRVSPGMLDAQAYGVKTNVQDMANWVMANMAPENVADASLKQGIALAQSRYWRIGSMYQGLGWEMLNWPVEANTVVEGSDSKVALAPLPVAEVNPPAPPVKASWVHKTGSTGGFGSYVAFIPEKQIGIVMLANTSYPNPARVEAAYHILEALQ
Another assay deals with Beta-lactamase TEM (Escherichia coli, UniProt P62593). Description: Concentration required for its inhibitory activity against Escherichia coli JT4(TEM1) class A beta-lactamase.
Chain of Beta-lactamase TEM (P62593 whole entry): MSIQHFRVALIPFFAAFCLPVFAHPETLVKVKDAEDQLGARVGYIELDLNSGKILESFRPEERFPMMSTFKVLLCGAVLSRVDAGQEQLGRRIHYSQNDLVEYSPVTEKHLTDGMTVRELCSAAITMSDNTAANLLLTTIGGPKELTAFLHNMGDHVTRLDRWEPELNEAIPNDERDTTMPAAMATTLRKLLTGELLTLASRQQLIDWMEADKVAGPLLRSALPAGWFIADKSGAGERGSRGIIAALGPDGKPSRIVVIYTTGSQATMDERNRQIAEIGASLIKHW
Assay [3] addresses T1, Beta-lactamase (Escherichia coli, UniProt Q2V0Y6).
T1 sequence (Q2V0Y6 whole entry): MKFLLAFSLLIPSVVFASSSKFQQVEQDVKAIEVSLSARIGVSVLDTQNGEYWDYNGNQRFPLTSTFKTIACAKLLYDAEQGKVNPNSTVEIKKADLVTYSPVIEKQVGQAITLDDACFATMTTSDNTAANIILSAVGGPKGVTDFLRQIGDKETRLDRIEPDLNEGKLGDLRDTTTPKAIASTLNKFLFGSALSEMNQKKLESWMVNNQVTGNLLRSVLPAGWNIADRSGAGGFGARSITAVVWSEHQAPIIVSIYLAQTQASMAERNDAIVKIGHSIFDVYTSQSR
Description: Concentration required for its inhibitory activity against Escherichia coli K12(PSE4) class A beta-lactamase.

Assay [4] deals with T2, Beta-lactamase (Proteus mirabilis, UniProt P30897).
T2 sequence (P30897 whole entry): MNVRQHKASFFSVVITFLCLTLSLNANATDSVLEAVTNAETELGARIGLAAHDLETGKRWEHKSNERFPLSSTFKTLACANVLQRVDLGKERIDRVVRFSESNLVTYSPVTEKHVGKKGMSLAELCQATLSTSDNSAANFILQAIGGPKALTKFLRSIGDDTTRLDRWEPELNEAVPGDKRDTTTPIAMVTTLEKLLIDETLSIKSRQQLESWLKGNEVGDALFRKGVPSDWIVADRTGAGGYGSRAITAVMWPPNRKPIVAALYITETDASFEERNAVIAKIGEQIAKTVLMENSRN
Description: Concentration required for its inhibitory activity against Proteus mirabilis C889 class A beta-lactamase.

In the next assay the target is Beta-lactamase OXA-1 (Escherichia coli, UniProt P13661). Description: Concentration required for its inhibitory activity against Escherichia coli K12(OXA1) class D beta-lactamase.
Chain of Beta-lactamase OXA-1 (P13661 whole entry): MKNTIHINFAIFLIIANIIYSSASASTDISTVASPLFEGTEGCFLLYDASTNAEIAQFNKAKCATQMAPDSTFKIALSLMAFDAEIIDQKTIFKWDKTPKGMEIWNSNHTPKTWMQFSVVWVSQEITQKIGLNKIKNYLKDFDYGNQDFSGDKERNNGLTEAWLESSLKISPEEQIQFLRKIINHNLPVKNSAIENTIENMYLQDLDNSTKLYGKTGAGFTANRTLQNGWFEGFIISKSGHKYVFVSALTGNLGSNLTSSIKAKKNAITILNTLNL

Chain of Beta-lactamase (Pseudomonas aeruginosa (strain ATCC 15692 / DSM 22644 / CIP 104116 / JCM 14847 / LMG 12228 / 1C / PRS 101 / PAO1), UniProt P24735) (P24735 whole entry): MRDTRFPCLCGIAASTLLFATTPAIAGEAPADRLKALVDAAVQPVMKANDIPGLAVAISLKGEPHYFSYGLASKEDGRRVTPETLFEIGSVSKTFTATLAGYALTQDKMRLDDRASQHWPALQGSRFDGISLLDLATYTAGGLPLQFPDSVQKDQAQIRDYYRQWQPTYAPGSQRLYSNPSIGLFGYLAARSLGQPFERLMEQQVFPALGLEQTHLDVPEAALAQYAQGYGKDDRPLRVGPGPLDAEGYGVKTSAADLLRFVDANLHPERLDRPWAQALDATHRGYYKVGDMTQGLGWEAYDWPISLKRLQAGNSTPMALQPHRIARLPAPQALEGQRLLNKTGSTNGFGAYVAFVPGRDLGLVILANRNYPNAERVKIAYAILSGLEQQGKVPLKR

For the compound `CC(C)CCCCCCCCCCCCCc1cccc(O)c1C(=O)O`, the results for the IC50 against Beta-lactamase [1], on Beta-lactamase [2] and against Beta-lactamase TEM were 44.1 µM, 24.8 µM and 26.7 µM, respectively.
For `CC/C=C\C/C=C\C/C=C\CCCCCCCc1cccc(O)c1C(=O)O`, the IC50 (as a rule, the concentration that gives 50% inhibition) was determined as 26.9 µM on Beta-lactamase [3], 45.8 µM against Beta-lactamase [2] and 13.4 µM against Beta-lactamase TEM.
For `CCC(C)CCCCCCCCCCCCc1cccc(O)c1C(=O)O` (centres undefined), the IC50 against Beta-lactamase [1] came out at 99.2 µM; on Beta-lactamase [2], 85.5 µM; against Beta-lactamase TEM it was 27.5 µM.
For `CCCCCCCCCCc1ccccc1C(=O)O`, on Beta-lactamase TEM, the IC50 was 68.6 µM.
As for `CCCCCCCCCCCCCCCc1cccc(OC)c1C(=O)O`, the IC50 against Beta-lactamase [1] is 30.3 µM; at Beta-lactamase [3], 1.65 µM; on Beta-lactamase [4], 60.6 µM; against Beta-lactamase [2], 6.89 µM; against Beta-lactamase OXA-1 it was more than 91 µM; at Beta-lactamase TEM, 2.2 µM.
Compound `CCCCCCCCCCCCCCCc1cccc(O)c1O` came in with an IC50 against Beta-lactamase [2] of 90.4 µM.
`CCCCCCCCCCc1cccc(O)c1O` displayed an IC50 against Beta-lactamase [2] of 83.8 µM.
On to `CCCCCCCCCCc1cccc(O)c1`, for which the IC50 at Beta-lactamase [3] turned out to be 17.4 µM; at Beta-lactamase [2], 19.1 µM; against Beta-lactamase TEM, 8.1 µM.
With `CCCCCCCCCCCCCCCCCc1cccc(O)c1C(=O)O`, the IC50 on Beta-lactamase [1] was determined as 24.1 µM; against Beta-lactamase [3], 1.85 µM; against Beta-lactamase [4], 22 µM; at Beta-lactamase [2], 2.65 µM; at Beta-lactamase OXA-1, 77 µM; on Beta-lactamase TEM, 5.04 µM.
Consider `CCCCCCCCc1cccc(O)c1C(=O)O`, for which the results for the IC50 at Beta-lactamase [3] and against Beta-lactamase [4] were 63.9 µM and 15.5 µM, respectively.
Consider `CCCCCCCCCCc1cccc(O)c1C(=O)O`, for which, at Beta-lactamase TEM, the IC50 worked out at 43.1 µM.
Regarding `CCCCCCCCCCCCCCCc1cccc(O)c1` [3-pentadecylphenol], the IC50 was determined as 65.6 µM on Beta-lactamase [3] and 23.6 µM on Beta-lactamase [2].
For `C=CC/C=C\C/C=C\CCCCCCCc1cccc(O)c1C(=O)O` [6-[8(Z),11(Z),14-pentadecatrienyl]salicylic acid], the IC50 against Beta-lactamase [1] was 21 µM; at Beta-lactamase [3], 3.21 µM; on Beta-lactamase [4], 90.5 µM; at Beta-lactamase [2], 4.08 µM; against Beta-lactamase OXA-1, 72.9 µM; at Beta-lactamase TEM, 2.33 µM.
`O=C(O)[C@H]1/C(=C/CO)O[C@@H]2CC(=O)N21` [antibiotic MM 14151] registered an IC50 on Beta-lactamase OXA-1 of 1.75 µM.
